The results in this text go back to US20100035822A1, “PROLINE-RICH PEPTIDES, PHARMACEUTICAL COMPOSITION, USE OF ONE OR MORE PEPTIDES AND METHOD OF TREATMENT” (priority 2006, published 2010).

The subject of assay [1] is HUVEC cells (human umbilical vessel endothelial cells). Kind of assay: NO (nitrite) production in HUVEC cells. In kind it is cell-based. The settings on record: 24 hours incubation. Here is the method:
HUVEC cells (human umbilical vessel endothelial cells) were obtained from umbilical vessels, a gift from the University Hospital of the University of São Paulo. Vessels were washed externally with ethanol 96%, and after a diagonal cut at the end of the vessel, a catheter was introduced into the vessel vein, and attached to a three way valve. The vein was washed with 20 ml sterile saline, and the other end of the vessel was tied. One milliliter of a collagenase type IV solution was introduced (0.2 mg/ml/cm of umbilical vessel). The vessel was transferred to a Petri dish (10 cm^2), and incubated for 15 minutes at 37° C. Cells contained inside the cord were removed by massage, and transferred to a sterile tube. Bovine fetal serum was added to a final concentration of 10%, and the suspension was centrifuged for 10 minutes at 3.000 g at 4° C., and the cell pellet was resuspended in 2 ml complete medium (40% Medium 199, 40% DMEM, 18% bovine fetal serum, 1% L-glutamine, 1% penicillin/streptomycin). The cell suspension was transferred to a bottle, previously treated with a 1% gelatin solution (30 min at 4° C.), and 5 mL complete medium was added. The bottle was incubated at 37° C. at 5% CO2 atmosphere. […]
Cells were grown in Petri dishes to 80% confluence. […] The concentration of nitrite, derived from NO, was measured in the extracellular and the intracellular media.

A further assay concerns SK-N-AS cells. Briefly: NO (nitrite) production in SK-N-AS neuroblastoma cells. In kind it is cell-based, human. The note with it: 24 hours incubation. Here is the method: Human neurobalsotma cells (SK-N-AS, ATCC no. CRL-2137) were kept in DMEM, supplemented with 10% FBS (fetal bovine serum) and 1% non-essential amino acids, at 5% CO2 atmosphere, at 37° C., and 95% relative humidity. Cells were treated with trypsin, and replicated when an adequate cell concentration had been reached. The medium was exchanged after 12 hours, and later, every third day.
The method of Feelisch et al. (Feelisch et al., Concomitant S-, N-, and heme-nitros(yl)ation in biological tissues and fluids: implications for the fate of NO in vivo. FASEB J 16: 1775-1785, 2000) was employed to analyze NO production in the endothelial and neuronal cells described above.
Cells were grown in Petri dishes to 80% confluence. Peptide SEQ ID NO 8 was added in the concentration range of 0-8 μM to HUVEC cells, and 0-100 μM to SK-N-AS cells, and incubation continued for 24 hours. Subsequently, 1 ml of medium was retrieved (extracellular medium), and replaced by 1 ml 10 mM N-ethylmaleimide. Cells were washed in PBS, and lyzed in RIPA buffer (50 mM Tris pH 7.5, 150 mM NaCl, 1% Nonidet p-40 (NP-40) and 0.5% Na-desoxycholate, 0.1% SDS, 1 mM DTPA, and 10 mM N-ethylmaleimide). Lysats were collected and incubated on ice for 20 minutes and centrifuged. Supernatants were kept at −80° C. […] The concentration of nitrite, derived from NO, was measured in the extracellular and the intracellular media.

With <ENWPHPQIPP [SEQ ID NO 8], the “increase of NO generation” value (in assay [1]; with SK-N-AS cells) was “approximately 100%” in each case.
